Paper PMC6856805, “Environmental Risk Assessment for the Active Pharmaceutical Ingredient Mycophenolic Acid in European Surface Waters” (Environmental Toxicology and Chemistry, 2019)
≈ marks a conversion by molar mass, not a printed value. Where “and” joins values, the source holds several entries; their conditions need not be identical. Equal entries are not always repeated. Where two headings read alike, the source gives them in different places.

Assays:
[1] = test system: Wistar rat embryos, murine embryonic stem cells, and mouse fibroblasts; set-up: method as in Eckardt and Stahlmann 2010; conditions: mammalian systems; ref Eckardt and Stahlmann 2010; cited from earlier work
[2] = Derivation of predicted no-effect concentrations (PNEC) for STPs and surface water
From the text: The surface (fresh) water PNECSW was derived in 2 ways, from the lowest chronic NOEC on the one hand and from the lowest chronic 10% effect concentration (EC10) on the other, from (sub)chronic tests with fish, daphnids, green algae, and cyanobacteria (for the latter 2 the NOErC/ErC10 for growth rate [r] was used), using an assessment factor of 10 (Committee for Medicinal Products for Human Use 2015).

Daphnia magna = test: OECD 211 chronic reproduction test; format: in vivo; conditions: GMMC
Protocol: An OECD 211 chronic reproduction test with the cladoceran Daphnia magna was performed by ECT Oekotoxikologie with a series of concentrations of MPA in daphnid test medium plus medium-only controls over 21 days (Egeler & Chambers 2018). The test medium was exchanged every 2–3 days, the daphnids were fed with live algae (Desmodesmus subspicatus) throughout the exposure. Fresh and old medium samples were analysed by LC–MS/MS (Supplemental Information) and the time-weighted mean measured concentrations (TWMMC) for the concentrations determined. Statistical data evaluation was performed using Williams's test, Fisher's Exact test, Multiple sequentially rejective U-test after Bonferroni-Holm and Probit analysis. The endpoints in this test were survival and size (length) of the parental daphnids at the end of the test; number of young daphnids released per surviving F0 mother; any malformations or undeveloped eggs; and the intrinsic rate of reproduction (IRR), which integrates both survival and reproduction, as a measure of longer-term stability (IRR ~1), growth (IRR >1) or decline (IRR <1) of a population.

daphnid [3] = conditions: in vivo
[4] = test system: inosine-5'-monophosphate dehydrogenase (IMPDH); set-up: method as in Wishart et al. 2018; Royal Pharmaceutical Society 2018; conditions: ref Wishart et al. 2018; Royal Pharmaceutical Society 2018; cited from earlier work
[5] = test system: Rhaphidocelis (Pseudokirchneriella) subcapitata; conditions: cited from earlier work
[6] = Solubility in buffered aqueous solutions; format: physicochemical; conditions: buffered aqueous solution, 25 °C, aqueous buffer, read-out: Solubility in water
From the text: Syntex derived many basic physicochemical properties for both MPM and MPA in the early 1990s. The results for MPA are mostly given in the present study.

Danio rerio = test: Fish partial life cycle test, OECD 210 early life stage phase (F1); format: in vivo
Protocol: At the highest tested concentration of 0.1 mg MPA/L nominal concentration (73 µg/L GMMC), only 2 of 75 hatched fish survived until the end of the test, showing that the test concentration range was well chosen. The most sensitive endpoints in this partial life cycle test were survival and growth in terms of length and mass of the young F1 fish; the effects were comparatively small but statistically significant at p = 0.05. In contrast, the F0 generation was impacted to a lesser extent.
In view of the mammalian mutagenicity and reprotoxicity, a fish partial life-cycle test (PLC; an OECD 229 short-term reproduction test followed by an OECD 210 early-life-stage test) was performed by ECT Oekotoxikologie under GLP with a series of concentrations of MPA in a flow-through setting with the zebrafish Danio rerio (Gilberg & Chambers 2018). Briefly, mature fish (F0 generation) in breeding groups of 14 fish were exposed to four concentrations of the test item (0.0005, 0.0029, 0.0171 and 0.100 mg MPA/L), in fish media as well as to controls without the test item, in two replicates per treatment including controls, for 23 days in a 14-hours light to 10-hours dark photoperiod (OECD 229 phase). During this time period, reproduction parameters (survival of parents, fecundity, e.g., number of eggs, fertility and embryo viability/hatchability) of zebrafish exposed to the test item were assessed in comparison with the controls to determine the lowest observed effect concentration (LOEC) and the NOEC. After 23 days, newly fertilised eggs of the F1 generation were collected and exposed to the corresponding series of test item concentrations, 20 eggs in four replicates each per treatment including controls, until 30 days post-hatch (OECD 210 phase). Lethal and sublethal effects of the test item on eggs, larvae and juvenile fish exposed to the test item were assessed in comparison with controls to determine the LOEC and the NOEC. Samples were taken and analysed by LC–MS/MS (Supplemental Information) and the GMMC for the concentrations determined. Statistical check were made using Probit analyses, Weibull analyses, 2- and 3-parameter normal CDF, Shapiro-Wilk’s test on normal distribution, Levene’s test on variance homogeneity, Fisher's Exact Binomial test, Chi² 2×2 Table Test, Welsh t-test, Step-down Cochran-Armitage test Procedure, Williams Multiple Sequential t-test Procedure and Dunnett`s Multiple t-test Procedure.

daphnid [7] = test: animal or person; conditions: read-out: 48‐h median effect concentration (EC50)

COc1c(C)c2c(c(O)c1CC=C(C)CCC(=O)O)C(=O)OC2 [MPA, 6‐(1,3‐dihydro‐4‐hydroxy‐6‐methoxy‐7‐methyl‐3‐oxo‐5‐isobenzofuranyl)‐4‐methyl‐4‐hexenoic acid]
concentrations causing proliferation, cellular and developmental toxicity [1]: ≥ 31 ng/mL
PNECEC10 (aquatic) ([2]; fish EC10, assessment factor of 10): 0.58 µg MPA/L and 0.580 µg MPA/L
PNECNOEC (aquatic) ([2]; fish NOEC, assessment factor of 10): 0.132 µg MPA/L
EC10, fecundity and reproduction (Daphnia magna; 21 d): 0.929 µg/mL (≈ 2.9 µM)
LOEC, fecundity and reproduction (Daphnia magna; 21 d): 1800 µg/L
LOEC, length of parental daphnids (Daphnia magna; 21 d): 1800 µg/L
NOEC, fecundity and reproduction (Daphnia magna; 21 d): 630 µg MPA/L
NOEC, length of parental daphnids (Daphnia magna; 21 d): 630 µg/L
LOEC, mortality/immobility of parental daphnids and intrinsic rate of population increase (Daphnia magna): > 7530 µg/L
overall EC10 for the daphnids (Daphnia magna): 0.929 µg/mL
overall NOEC for the daphnids (Daphnia magna): 630 µg MPA/L
NOEC, mortality/immobility of parental daphnids and intrinsic rate of population increase (Daphnia magna; highest tested concentration): 7530 µg MPA/L
48‐h NOEC (daphnid [3]): 440 mg/L
type of inhibition [4]: reversible, potent, and noncompetitive inhibitor
ErC50 ([5]; GMMC, 24 h dark + 72 h light, ref European Chemicals Agency 2018): 68 µg/L
ErC10 [5]: 12 µg/L
NOErC [5]: 9 µg/L
solubility ([6]; pH 5, 25 ± 2 °C): 45 µg/mL (≈ 140 µM)
solubility ([6]; pH 7, 25 ± 2 °C): 710 µg/mL (≈ 2220 µM)
hatched fish surviving until the end of the test (Danio rerio; 0.1 mg MPA/L nominal (73 µg/L GMMC)): 2 of 75
EC10, hatching success (Danio rerio; 34 d phase): > 73 µg GMMC MPA/L
NOEC, hatching success (Danio rerio; 34 d phase, GMMC): 73 µg/L
lowest EC10 (Danio rerio; Danio rerio, in vivo, 57 d): 5.8 µg MPA/L
overall NOEC for all endpoints in both F0 and F1 generations (Danio rerio; Danio rerio, in vivo, 57 d): 1.32 µg MPA/L
EC10, posthatch success (survival) and number of healthy fish (Danio rerio; F1, GMMC): 5.8 µg MPA/L
NOEC, posthatch success (survival) and number of healthy fish (Danio rerio; F1, GMMC): 10.9 µg MPA/L
EC10, length of the surviving F1 fish (Danio rerio; GMMC): 31.9 µg MPA/L
EC10, wet weight of the surviving F1 fish (Danio rerio; GMMC): 10.6 µg MPA/L
NOEC, length of the surviving F1 fish (Danio rerio; GMMC): 1.32 µg/L
NOEC, wet weight of the surviving F1 fish (Danio rerio; GMMC): 1.32 µg/L
EC50 (daphnid [7]): 755 µg/mL (≈ 2360 µM)
